Measurements from US10441548B2, “Aggregating microparticles for medical therapy” (GRAYBUG VISION, INC., priority 2015, dated 2019).

Assay: Acute non-GLP IVT ocular tolerability and toxicity study of sunitinib malate (free drug)
Format: in vivo, pigmented rabbits
Settings: single bilateral IVT injection in PBS, up to 7 days
Description: An acute, non-GLP IVT study was conducted to evaluate the ocular tolerability and toxicity of sunitinib malate (free drug) for up to 7 days following a single IVT injection. Sunitinib malate was formulated in phosphate buffered saline and injected bilaterally (0.1 mL) at 0.125 or 1.25 mg per eye.
FIG. 13A, FIG. 13B, and FIG. 13C illustrate select PK profiles for sunitinib malate in the retina, vitreous, and plasma, respectively, from pigmented rabbits.

Compound: CCN(CC)CCNC(=O)c1c(C)[nH]c(/C=C2\C(=O)Nc3ccc(F)cc32)c1C [sunitinib malate]
- no-observed-adverse-effect-level (NOAEL) dose: 0.125 mg/eye
